Literature values as cited in PubChem BioAssay AID1259409 (Chemical Carcinogenesis Research Information System (CCRIS), 2018).
Several values for one entry are separate records, joined by “and”; a condition that tells them apart may be missing. Equal entries are not always repeated.

Tested on: rodent chemically induced tumor inhibition, incidence and multiplicity
Assay: CCRIS tumor inhibitor studies

CC(=O)[C@@H]1C[C@@H]2C[C@H]1[C@@H](N=C=S)C2
tumour outcome (control, treated, inhibition, significance) (Carcinogen: 7,12-DIMETHYLBENZ[A]ANTHRACENE, 57-97-6, Dose [Inhibitor]: 0, 75 UMOL/D IN 0.5 ML EMULPHOR EL-620 FOR 5 CONSECUTIVE DAYS BEGINNING AT 47 D OF AGE (STUDY DURATION: 155 D), Route [Inhibitor]: GAVAGE, Species: RAT, Strain/Sex: SPRAGUE-DAWLEY/FEMALE, Target Tissue: Type of Lesion: MAMMARY GLAND: TUMOR, Dose [Carcinogen]: 8 MG IN 1 ML SESAME OIL ONCE AT 50 D OF AGE, Promoter: NONE USED): 17/25 (68%), 5/20 (25%), 63%, p<0.05
tumour outcome (control, treated, inhibition, significance) (Carcinogen: 7,12-DIMETHYLBENZ[A]ANTHRACENE, 57-97-6, Dose [Inhibitor]: 0, 150 UMOL/D IN 0.5 ML EMULPHOR EL-620 FOR 5 CONSECUTIVE DAYS BEGINNING AT 47 D OF AGE (STUDY DURATION: 155 D), Route [Inhibitor]: GAVAGE, Species: RAT, Strain/Sex: SPRAGUE-DAWLEY/FEMALE, Target Tissue: Type of Lesion: MAMMARY GLAND: TUMOR, Dose [Carcinogen]: 8 MG IN 1 ML SESAME OIL ONCE AT 50 D OF AGE, Promoter: NONE USED): 17/25 (68%), 5/20 (25%), 63%, p<0.05

CC1=CCC(C(C)(O)CO)CC1 (stereo unspecified)
tumour outcome (control, treated, inhibition, significance) (Carcinogen: 7,12-DIMETHYLBENZ[A]ANTHRACENE, 57-97-6, Dose [Inhibitor]: 0, 1% IN DIET FOR 3 WK BEGINNING 2 WK PRIOR TO CARCINOGEN DOSE (STUDY DURATION: 20 WK), Route [Inhibitor]: ORAL, Species: RAT, Strain/Sex: WISTAR/FEMALE, Target Tissue: Type of Lesion: MAMMARY GLAND: CARCINOMA, Dose [Carcinogen]: 50 MG/KG IN SESAME OIL ONCE, Promoter: NONE USED): 98%, 84%, 14%, not significant

COc1cc2ccc(=O)oc2cc1O
tumour outcome (control, treated, inhibition, significance) (Carcinogen: 7,12-DIMETHYLBENZ[A]ANTHRACENE, 57-97-6, Dose [Inhibitor]: 0.068 MMOL/G IN DIET FOR 8 D BEGINNING 1 WK PRIOR TO CARCINOGEN DOSE (STUDY DURATION: 23 WK), Route [Inhibitor]: ORAL, Species: RAT, Strain/Sex: SPRAGUE-DAWLEY/FEMALE, Target Tissue: Type of Lesion: MAMMARY GLAND: TUMOR, Dose [Carcinogen]: 12 MG IN 1.0 ML OLIVE OIL ONCE, Promoter: NONE USED): 100%, 78%, 22%, not significant
tumour outcome (control, treated, inhibition, significance) (Carcinogen: BENZO[A]PYRENE, 50-32-8, Dose [Inhibitor]: 0.034 MMOL/G IN DIET BEGINNING 1 WK PRIOR TO FIRST CARCINOGEN DOSE AND CONTINUING FOR 3 D POST LAST CARCINOGEN DOSE FOR, Route [Inhibitor]: ORAL, Species: MOUSE, Strain/Sex: ICR/HA/FEMALE, Target Tissue: Type of Lesion: FORESTOMACH: TUMOR, Dose [Carcinogen]: 1 MG IN 0.2 ML CORN OIL 2/WK FOR 4 WK, Promoter: NONE USED): 100%, 100%, 0%, not significant

C/C(=C\c1ccc2c(c1)C(C)(C)CCC2(C)C)c1ccc(C(=O)O)cc1
tumour outcome (control, treated, inhibition, significance) (Carcinogen: 7,12-DIMETHYLBENZ[A]ANTHRACENE, 57-97-6, Dose [Inhibitor]: 0.17 NMOL IN 0.2 ML ACETONE 1 HR PRIOR TO EACH PROMOTER DOSE FOR 12 WK (STUDY DURATION: 14 WK), Route [Inhibitor]: DERMAL, Species: MOUSE, Strain/Sex: SENCAR/FEMALE, Target Tissue: Type of Lesion: SKIN: PAPILLOMA, Dose [Carcinogen]: 200 NMOL IN 0.2 ML ACETONE ONCE, Promoter: 12-O-TETRADECANOYLPHORBOL-13-ACETATE, 16561-29-8): 100%, 93%, 7%, not calculated
tumour outcome (control, treated, inhibition, significance) (Carcinogen: 7,12-DIMETHYLBENZ[A]ANTHRACENE, 57-97-6, Dose [Inhibitor]: 0.17 NMOL IN 0.2 ML ACETONE 1 HR PRIOR TO EACH PROMOTER DOSE FOR 20 WK (STUDY DURATION: 22 WK), Route [Inhibitor]: DERMAL, Species: MOUSE, Strain/Sex: CD-1/FEMALE, Target Tissue: Type of Lesion: SKIN: PAPILLOMA, Dose [Carcinogen]: 200 NMOL IN 0.2 ML ACETONE ONCE, Promoter: 12-O-TETRADECANOYLPHORBOL-13-ACETATE, 16561-29-8): 94%, 87%, 8%, not calculated
tumour outcome (control, treated, inhibition, significance) (Carcinogen: 7,12-DIMETHYLBENZ[A]ANTHRACENE, 57-97-6, Dose [Inhibitor]: 1.7 NMOL IN 0.2 ML ACETONE 1 HR PRIOR TO EACH PROMOTER DOSE FOR 12 WK (STUDY DURATION: 14 WK), Route [Inhibitor]: DERMAL, Species: MOUSE, Strain/Sex: SENCAR/FEMALE, Target Tissue: Type of Lesion: SKIN: PAPILLOMA, Dose [Carcinogen]: 200 NMOL IN 0.2 ML ACETONE ONCE, Promoter: 12-O-TETRADECANOYLPHORBOL-13-ACETATE, 16561-29-8): 100%, 97%, 3%, not calculated
tumour outcome (control, treated, inhibition, significance) (Carcinogen: 7,12-DIMETHYLBENZ[A]ANTHRACENE, 57-97-6, Dose [Inhibitor]: 1.7 NMOL IN 0.2 ML ACETONE 1 HR PRIOR TO EACH PROMOTER DOSE FOR 20 WK (STUDY DURATION: 22 WK), Route [Inhibitor]: DERMAL, Species: MOUSE, Strain/Sex: CD-1/FEMALE, Target Tissue: Type of Lesion: SKIN: PAPILLOMA, Dose [Carcinogen]: 200 NMOL IN 0.2 ML ACETONE ONCE, Promoter: 12-O-TETRADECANOYLPHORBOL-13-ACETATE, 16561-29-8): 94%, 69%, 27%, not calculated
tumour outcome (control, treated, inhibition, significance) (Carcinogen: 7,12-DIMETHYLBENZ[A]ANTHRACENE, 57-97-6, Dose [Inhibitor]: 17 NMOL IN 0.2 ML ACETONE 1 HR PRIOR TO EACH PROMOTER DOSE FOR 12 WK (STUDY DURATION: 14 WK), Route [Inhibitor]: DERMAL, Species: MOUSE, Strain/Sex: SENCAR/FEMALE, Target Tissue: Type of Lesion: SKIN: PAPILLOMA, Dose [Carcinogen]: 200 NMOL IN 0.2 ML ACETONE ONCE, Promoter: 12-O-TETRADECANOYLPHORBOL-13-ACETATE, 16561-29-8): 100%, 3%, 97%, not calculated
tumour outcome (control, treated, inhibition, significance) (Carcinogen: 7,12-DIMETHYLBENZ[A]ANTHRACENE, 57-97-6, Dose [Inhibitor]: 17 NMOL IN 0.2 ML ACETONE 1 HR PRIOR TO EACH PROMOTER DOSE FOR 20 WK (STUDY DURATION: 22 WK), Route [Inhibitor]: DERMAL, Species: MOUSE, Strain/Sex: CD-1/FEMALE, Target Tissue: Type of Lesion: SKIN: PAPILLOMA, Dose [Carcinogen]: 200 NMOL IN 0.2 ML ACETONE ONCE, Promoter: 12-O-TETRADECANOYLPHORBOL-13-ACETATE, 16561-29-8): 94%, 0%, 100%, not calculated

O=C(c1ccc(OCCN2CCCCC2)cc1)c1c(-c2ccc(O)cc2)sc2cc(O)ccc12
tumour outcome (control, treated, inhibition, significance) (Carcinogen: 7,12-DIMETHYLBENZ[A]ANTHRACENE (DMBA) [57-97-6], Dose [Inhibitor]: 50 MG/KG/D FOR 37 WK (STUDY DURATION: 37 WK), Route [Inhibitor]: ORAL GAVAGE, Species: MOUSE, Strain/Sex: SENCAR/FEMALE, Target Tissue: Type of Lesion: MAMMARY: CARCINOMA, Dose [Carcinogen]: 20 UG/D FOR 6 WKS (STUDY DURATION: 37 WKS), Promoter: MEDROXYPROGESTERONE ACETATE (71-58-9)): 10/21 (48%); 5/17 (29%), 40%, p=0.20
tumour outcome (control, treated, inhibition, significance) (Carcinogen: ESTRADIOL, 50-28-2, Dose [Inhibitor]: 0, 25 MG PELLET 2 PELLETS IMPLANTED EVERY 3 MO BEGINNING 15 D PRIOR TO CARCINOGEN DOSE (STUDY DURATION: 8 MO), Route [Inhibitor]: SUBCUTANEOUS IMPLANT, Species: HAMSTER, Strain/Sex: SYRIAN/MALE, Target Tissue: Type of Lesion: KIDNEY: TUMOR, Dose [Carcinogen]: 25 MG PELLET IMPLANTED EVERY 3 MO, Promoter: NONE USED): 5/5 (100%), 3/4 (75%), 25%, not significant
tumour outcome (control, treated, inhibition, significance) (Carcinogen: N-METHYL-N-NITROSOUREA, 684-93-5, Dose [Inhibitor]: 0, 5 MG/KG BW/D 2/WK TO DORSAL AREA STARTING 10 D BEFORE CARCINOGEN TREATMENT FOR THE DURATION OF THE STUDY (STUDY DURAT, Route [Inhibitor]: SUBCUTANEOUSLY, Species: RAT, Strain/Sex: SPRAGUE-DAWLEY/FEMALE, Target Tissue: Type of Lesion: MAMMARY GLAND: TUMOR, Dose [Carcinogen]: 50 MG/KG BW 2/WK FOR 1 WK BW 43-54 POSTNATAL DAYS): 80%, 26%, 67%, p<0.001
tumour outcome (control, treated, inhibition, significance) (Carcinogen: N-METHYL-N-NITROSOUREA, 684-93-5, Dose [Inhibitor]: 0, 20 MG/KG OF DIET FOR DURATION OF STUDY BEGINNING 1 WK POST CARCINOGEN DOSE (STUDY DURATION: 5 MO), Route [Inhibitor]: ORAL, Species: RAT, Strain/Sex: SPRAGUE-DAWLEY/FEMALE, Target Tissue: Type of Lesion: MAMMARY GLAND: TUMOR, Dose [Carcinogen]: 50 MG/KG BW ONCE, Promoter: NONE USED): 23/24 (96%), 10/12 (83%), 14%, p=0.26 and 29/30 (97%), 14/30 (47%), 52%, p=0.0001
tumour outcome (control, treated, inhibition, significance) (Carcinogen: N-METHYL-N-NITROSOUREA, 684-93-5, Dose [Inhibitor]: 0, 60 MG/KG OF DIET FOR DURATION OF STUDY BEGINNING 1 WK POST CARCINOGEN DOSE (STUDY DURATION: 5 MO), Route [Inhibitor]: ORAL, Species: RAT, Strain/Sex: SPRAGUE-DAWLEY/FEMALE, Target Tissue: Type of Lesion: MAMMARY GLAND: TUMOR, Dose [Carcinogen]: 50 MG/KG BW ONCE, Promoter: NONE USED): 23/24 (96%), 8/12 (67%), 30%, p=0.03 and 29/30 (97%), 15/30 (50%), 48%, p=0.0002
